Source: patent US6384043B1, “Methods of alleviating pain sensations of the denuded eye with opioid analgesics” (priority 1993, dated 2002)
Where a name gives a salt, the structure may show the parent alone. Read-outs that look alike come from different tables or passages of the source.

Legend:
[1] = system: corneal epithelial cell regeneration in pigmented rabbits; assay: Toxicity test: corneal re-epithelialization (wound healing) after mechanical removal of epithelial cells; details: for Animals with complete healing of the cornea / total animals per group: 2 drops at 4 hourly intervals for 6 days
Procedure: Healthy pigmented rabbits weighing about 1.5-2.2 kg were anesthetized and then corneal epithelial cells were scraped and removed using a blade under direct view of a microscope. The basal lamina was left intact while thorough de-epithelialization was performed and confirmed by staining the surface of the cornea with 1% fluorescein. […] Eyes in each group were instilled with two drops of the corresponding solution at 4 hourly intervals for 6 consecutive days. Wound healing (corneal re-epithelialization) was assessed on days 2, 3, 4, 5, 6, 7, and 8 following corneal abrasion using fluorescein staining with Fluor-I-Strip, and epithelial regeneration and migration were monitored by clinical examinations as well as wound surface area measurements.

[2] = system: pain scores following knee surgery; details: applied locally inside the joints following knee surgery; cited from earlier work
[3] = system: corneal sensitivity of patients with corneal abrasion or after a refractive procedure; details: 2 drops topical, morphine 0.5 mg/ml, mean ± SEM
Procedure: The following describes analgesic tests which were performed on patients following topical application of the prepared and previously described topical ophthalmic analgesic formulation. […] Five patients were selected to participate in this study. In all cases, three measurements were made in the following fashion: First, a baseline response (corneal sensitivity) was established by determining the response of the patient eye to a standard pain pressure using a Cochet Bonnet Aesthesiometer instrument and without applying any drug. Measurements were made by beginning with the nylon monofilament (0.12 mm diameter) fully extended. The tip was applied perpendicularly to the corneal surface and gently pressed until the fiber's first visible bending. […] The length was then recorded in units of mm. Second, a saline solution (2 drops) were instilled in the eye and at 10 and 20 minutes later the response of the patient's cornea to pain pressure was determined as described above. These repeated measurements served as a placebo effect for comparison purposes.
Again, an Aesthesiometer, based upon the principle of pressure transmitted axially by a nylon monofilament of known diameter but of variable length for a given bending stress, was applied to the corneal surface. […] The distance, in millimeters (mm) of the nylon monofilament is recorded and then converted to pressure in gram/square millimeter.

[4] = system: pupil of morphine-dependent subject; details: applied topically to one eye of a morphine-dependent subject; cited from earlier work

CCCOc1ccc(C(=O)OCCN(CC)CC)cc1N [Alcaine, proparacaine HCl]
Complete regeneration / wound healing by ([1]; pigmented, rabbit, in vivo): ≤ 8 days
Day on which eyes began to show epithelial regeneration ([1]; rabbit, in vivo): third day
Effect of repeated topical application on corneal epithelial cell regeneration and migration ([1]; rabbit, in vivo): significantly prevented regeneration

CN1CC[C@]23c4c5ccc(O)c4O[C@H]2[C@@H](O)C=C[C@H]3[C@H]1C5.O=S(=O)(O)O [Morphine, morphine sulphate]
Effect on pain scores [2]: significantly reduced pain scores
Time to maximal effect [2]: 3 to 6 h
Animals with complete healing of the cornea / total animals per group ([1]; day 1): 0/6
Animals with complete healing of the cornea / total animals per group ([1]; day 2): 0/6
Animals with complete healing of the cornea / total animals per group ([1]; day 3): 0/6
Animals with complete healing of the cornea / total animals per group ([1]; day 4): 1
Animals with complete healing of the cornea / total animals per group ([1]; day 4, sulphate): 1/6
Animals with complete healing of the cornea / total animals per group ([1]; day 5, sulphate): 3/6
Animals with complete healing of the cornea / total animals per group ([1]; day 6): 4/6
Animals with complete healing of the cornea / total animals per group ([1]; day 7, sulphate): 5/6
Animals with complete healing of the cornea / total animals per group ([1]; day 8): 5/6
Corneal sensitivity expressed as pressure ([3]; 10 min after treatment): 7.69 ± 2.16 grm/sq. mm
Corneal sensitivity expressed as pressure ([3]; 20 min after treatment): 9.84 ± 1.00 grm/sq. mm

C=CCN1CC[C@]23c4c5ccc(O)c4O[C@H]2C(=O)CC[C@@]3(O)[C@H]1C5 [naloxone]
Effect on pupil of the same eye [4]: pupillary dilation
